Test results as given in patent US6670363B1, “Azole compounds as therapeutic agents for fungal infections” (Ranbaxy Laboratories Limited, priority 2000, dated 2003).
≈ marks a conversion by molar mass, not a printed value.

Legend:
Type in all cases: cell-based
A. fumigatus s 1008 = test: In vitro MIC, NCCLS M38P broth method (RPMI 1640/MOPS pH7), Aspergillus fumigatus; settings: A. fumigatus strain 1008
Candida = test: In vitro MIC, NCCLS M27A, Candida species; design: MIC, Candida albicans 1.549 / MIC, Candida albicans Y-01-19 / MIC, C. krusei 766-1 / MIC, C. krusei Q. C / MIC, Candida tropicalis ATCC / MIC, C. glabrata 90030: unit not given beside the values; MIC, Candida albicans A 26 / MIC, C. parapsilosis Q. C.: unit not given here; settings: for MIC, C. glabrata 90030: C. glabrata strain 90030; for MIC, C. krusei 766-1: C. krusei strain 766-1; for MIC, C. krusei Q. C: C. krusei strain Q. C; for MIC, C. parapsilosis Q. C.: C. parapsilosis strain Q. C.; for MIC, Candida albicans 1.549: Candida albicans strain 1.549; for MIC, Candida albicans A 26: Candida albicans strain A 26; for MIC, Candida albicans Y-01-19: Candida albicans strain Y-01-19
Cryptococcus neoformans = test: In vitro MIC, NCCLS M27A, Cryptococcus neoformans; design: MIC, C. neoformans I: unit not given beside the values; MIC, C. neoformans M 106: unit not given here; settings: for MIC, C. neoformans I: C. neoformans strain I; for MIC, C. neoformans M 106: C. neoformans strain M 106
Histoplasma capsulatum = tested on: Histoplasma capsulatum

Compound | MIC, A. fumigatus 1008 (A. fumigatus s 1008) | MIC, C. glabrata 90030 (Candida) | MIC, C. krusei 766-1 (Candida) | MIC, C. krusei Q. C (Candida) | MIC, C. parapsilosis Q. C. (Candida) | MIC, Candida albicans 1.549 (Candida) | MIC, Candida albicans A 26 (Candida) | MIC, Candida albicans Y-01-19 (Candida) | MIC, Candida tropicalis ATCC (Candida) | MIC, C. neoformans I (Cryptococcus neoformans) | MIC, C. neoformans M 106 (Cryptococcus neoformans) | MIC, H. capsulatum (Histoplasma capsulatum) [µg/mL]
Cc1ccc(Cl)cc1N1CCN(c2ccc(-n3cnn([C@H](C)[C@](O)(Cn4cncn4)c4ccc(F)cc4F)c3=O)cc2)CC1 [Compound 21, 2-{[1R2R/1S2S]-2-(2,4-Difluorophenyl)-2-hydroxy-1-methyl-3-(1H-1,2,4-triazol-1-yl)propyl}-4-{4-[4-(5-chloro-2-methylphenyl)-1-piperazinyl]phenyl}-3-(2H,4H)-1,2,4-triazolone] | 1.00 | 0.50 | 0.50 | 0.25 | 0.06 | 0.25 | <0.03 | 0.25 | <0.03 | <0.03 | <0.03 | 0.12 (≈ 0.193 µM)
Cc1ccc(Cl)cc1N1CCN(c2ccc(-n3cnn([C@H](C)[C@@](O)(Cn4cncn4)c4ccc(F)cc4F)c3=O)cc2)CC1 [Compound 22, 2-{[1R2S/1S2R]-2-(2,4-Difluorophenyl)-2-hydroxy-1-methyl-3-(1H-1,2,4-triazol-1-yl)propyl}-4-{4-[4-(5-chloro-2-methylphenyl)-1-piperazinyl]phenyl}-3-(2H,4H)-1,2,4-triazolone] | >16 | 1.00 | 8.00 | 1.00 | 0.25 | 2.00 | <0.03 | 1.00 | <0.03 | 0.12 | 0.06 | > 16
Cc1ccc(N2CCN(c3ccc(-n4cnn([C@H](C)[C@](O)(Cn5cncn5)c5ccc(F)cc5F)c4=O)cc3)CC2)cc1C [Compound 23, 2-{[1R2R/1S2S]-2-(2,4-Difluorophenyl)-2-hydroxy-1-methyl-3-(1H-1,2,4-triazol-1-yl)propyl}-4-{4-[4-(3,4-dimethylphenyl)-1-piperazinyl]phenyl}-3-(2H,4H)-1,2,4-triazolone] | 1.00 | 0.50 | 0.50 | 0.25 | <0.03 | 0.25 | <0.03 | 0.50 | <0.03 | <0.03 | <0.03 | 0.06 (≈ 0.0999 µM)
Cc1ccc(N2CCN(c3ccc(-n4cnn([C@H](C)[C@@](O)(Cn5cncn5)c5ccc(F)cc5F)c4=O)cc3)CC2)cc1C [Compound 24, 2-{[1R2S/1S2R]-2-(2,4-Difluorophenyl)-2-hydroxy-1-methyl-3-(1H-1,2,4-triazol-1-yl)propyl}-4-{4-[4-(3,4-dimethylphenyl)-1-piperazinyl]phenyl}-3-(2H,4H)-1,2,4-triazolone] | >16 | 2.00 | >16 | 16.0 | 0.25 | 2.00 | <0.03 | 16.00 | <0.03 | 0.50 | 1.00 | 0.25 (≈ 0.416 µM)
C[C@@H](n1ncn(-c2ccc(N3CCN(c4ccccc4F)CC3)cc2)c1=O)[C@](O)(Cn1cncn1)c1ccc(F)cc1F [Compound 25, 2-{[1R2R/1S2S]-2-(2,4-Difluorophenyl)-2-hydroxy-1-methyl-3-(1H-1,2,4-triazol-1-yl)propyl}-4-{4-[4-(2-fluorophenyl)-1-piperazinyl]phenyl}-3-(2H,4H)-1,2,4-triazolone] | 0.50 | 0.12 | 0.12 | 0.06 | <0.03 | 0.06 | <0.03 | 0.12 | <0.03 | <0.03 | <0.03 | 0.06 (≈ 0.102 µM)
Cc1nn([C@H](C)[C@@](O)(Cn2cncn2)c2ccc(F)cc2F)c(=O)n1-c1ccc(N2CCN(c3ccccc3F)CC2)cc1 [Compound 26, 2-{[1R2S/1S2R]-2-(2,4-Difluorophenyl)-2-hydroxy-1-methyl-3-(1H-1,2,4-triazol-1-yl)propyl}-4-{4-[4-(2-fluorophenyl)-1-piperazinyl]phenyl}-3-(2H,4H)-5-methyl-1,2,4-triazolone] | 8.00 | 1.00 | 2.00 | 0.50 | <0.03 | 0.25 | <0.03 | 1.00 | <0.03 | <0.03 | <0.03 | 0.12 (≈ 0.198 µM)
COc1ccc(F)cc1N1CCN(c2ccc(-n3c(C)nn([C@H](C)[C@](O)(Cn4cncn4)c4ccc(F)cc4F)c3=O)cc2)CC1 [Compound 27, 2-{[1R2R/1S2S]-2-(2,4-Difluorophenyl)-2-hydroxy-1-methyl-3-(1H-1,2,4-triazol-1-yl)propyl}-4-{4-[4-(2-methoxy-5-fluorophenyl)-1-piperazinyl]phenyl}-3-(2H,4H)-5-methyl-1,2,4-triazolone] | >16 | 1.00 | 2.00 | 0.50 | <0.03 | 1.00 | <0.03 | 0.50 | <0.03 | <0.03 | <0.03 | < 0.03
COc1ccc(F)cc1N1CCN(c2ccc(-n3c(C)nn([C@H](C)[C@@](O)(Cn4cncn4)c4ccc(F)cc4F)c3=O)cc2)CC1 [Compound 28, 2-{[1R2S/1S2R]-2-(2,4-Difluorophenyl)-2-hydroxy-1-methyl-3-(1H-1,2,4-triazol-1-yl)propyl}-4-{4-[4-(2-methoxy-5-fluorophenyl)-1-piperazinyl]phenyl}-3-(2H,4H)-5-methyl-1,2,4-triazolone] | >16 | 4.00 | >16 | 16.0 | 0.25 | 8.00 | <0.03 | 4.00 | <0.03 | 0.25 | 1.00 | 2 (≈ 3.15 µM)
Cc1nn([C@H](C)[C@](O)(Cn2cncn2)c2ccc(F)cc2F)c(=O)n1-c1ccc(N2CCN(c3cc(Cl)cc(Cl)c3)CC2)cc1 [Compound 29, 2-{[1R2R/1S2S]-2-(2,4-Difluorophenyl)-2-hydroxy-1-methyl-3-(1H-1,2,4-triazol-1-yl)propyl}-4-{4-[4-(3,5-dichlorophenyl)-1-piperazinyl]phenyl}-3-(2H,4H)-5-methyl-1,2,4-triazolone] | 0.50 | 0.50 | 0.50 | 0.25 | <0.03 | 0.25 | <0.03 | 0.25 | <0.03 | <0.03 | <0.03 | 0.25 (≈ 0.381 µM)
